Several values for one entry are separate records, joined by “and”; a condition that tells them apart may be missing. Equal values may be shown once. Entries after “also recorded” stand apart in the source; their conditions may differ.
Test system: collagen-induced arthritis
Assay: Collagen-induced arthritis (CIA) model in rats: body weight, paw volume, clinical scores, clinical observations
Conditions: CIA rats
[1] = 3 mg/kg twice daily P.O. (group 5)
[2] = 3 mg/kg twice daily P.O. (group 5), day 13
[3] = 3 mg/kg twice daily P.O. (group 5), day 14
[4] = 3 mg/kg twice daily P.O. (group 5), days 18, 19 and 21
[5] = 10 mg/kg twice daily P.O. (group 6)
[6] = 10 mg/kg twice daily P.O. (group 6), day 12
[7] = 10 mg/kg twice daily P.O. (group 6), day 14

In the case of `CNC(=O)c1[nH]c(C(=O)NC2CCC2)cc1O[C@@H](C)c1ccccc1` (stereo in doubt) [Example 101, N^5-cyclobutyl-N^2-methyl-3-(1-phenylethoxy)-1H-pyrrole-2,5-dicarboxamide], the “day on which paw volume noticeably increased” value [1] is reported as about 14 days, the “effect on hind paw volume” value [1] is reported as “less effective at preventing an increase in paw volume over the course of the study; also recorded: performed similarly to GSK620” and the “average overall clinical score at plateau” value (3 mg/kg twice daily P.O. (group 5), around day 18) is reported as 10. The “animals exhibiting signs of disease” value (3 mg/kg twice daily P.O. (group 5), day 12) was “Three animals”, the animals exhibiting disease [2] was 5/8 and the “animals with a clinical score of 2 in one hind limb” value [2] was 1/8. The animals exhibiting disease [3] was “all animals”, the “animals with clinical scores of at least 2 in one or more hind limbs” value [3] was 2/8 and the “animals with a score of 4 in one hind limb and a score of 3 in the other hind limb” value [4] was 2/8. The “animals with scores of 4 in each hind limb” value [4] was 6/8, the “paw volume increase at plateau relative to day 0” value (3 mg/kg twice daily P.O. (group 5), plateau at days 18-19) was “approximately 90%” and the “Average animal paw volume percent change” value (3 mg/kg, Day 0, left hind paw (L)) was 0.00%. For the same molecule, the “Animal paw volume Day 0 L” value (3 mg/kg, Day 0, left paw, individual animals) was 1.36 mL and 1.31 mL (2×) and 1.32 mL (2×) and 1.35 mL and 1.37 mL and 1.34 mL, the “Average animal paw volume percent change” value (3 mg/kg, Day 0, right hind paw (R)) was 0.00% and the “Animal paw volume Day 0 R” value (3 mg/kg, Day 0, right paw, individual animals) was 1.38 mL and 1.32 mL (2×) and 1.34 mL (3×) and 1.31 mL and 1.35 mL. For the same molecule, the “Average animal paw volume percent change” value (3 mg/kg, Day 6, left hind paw (L)) was 1.09%, the “Animal paw volume Day 6 L” value (3 mg/kg, Day 6, left paw, individual animals) was 1.36 mL (2×) and 1.32 mL (2×) and 1.40 mL and 1.31 mL and 1.37 mL and 1.35 mL and the “Average animal paw volume percent change” value (3 mg/kg, Day 6, right hind paw (R)) was 1.23%. The “Animal paw volume Day 6 R” value (3 mg/kg, Day 6, right paw, individual animals) was 1.38 mL and 1.33 mL and 1.35 mL and 1.40 mL and 1.36 mL (2×) and 1.32 mL and 1.34 mL, the “Average animal paw volume percent change” value (3 mg/kg, Day 12, left hind paw (L)) was 5.80% and the “Animal paw volume Day 12 L” value (3 mg/kg, Day 12, left paw, individual animals) was 1.38 mL and 1.32 mL and 1.39 mL (3×) and 1.42 mL and 1.37 mL and 1.63 mL. The “Average animal paw volume percent change” value (3 mg/kg, Day 12, right hind paw (R)) was 5.01%, the “Animal paw volume Day 12 R” value (3 mg/kg, Day 12, right paw, individual animals) was 1.40 mL and 1.43 mL and 1.38 mL (2×) and 1.46 mL and 1.44 mL and 1.36 mL and 1.39 mL and the “Average animal paw volume percent change” value (3 mg/kg, Day 13, left hind paw (L)) was 15.11%. For the same molecule, the “Animal paw volume Day 13 L” value (3 mg/kg, Day 13, left paw, individual animals) was 1.62 mL and 1.53 mL and 1.50 mL and 1.54 mL and 1.38 mL and 1.86 mL and 1.43 mL and 1.41 mL, the “Average animal paw volume percent change” value (3 mg/kg, Day 13, right hind paw (R)) was 9.28% and the “Animal paw volume Day 13 R” value (3 mg/kg, Day 13, right paw, individual animals) was 1.42 mL (2×) and 1.50 mL and 1.41 mL and 1.47 mL and 1.40 mL and 1.68 mL and 1.39 mL. For the same molecule, the “Average animal paw volume percent change” value (3 mg/kg, Day 14, left hind paw (L)) was 27.04%, the “Animal paw volume Day 14 L” value (3 mg/kg, Day 14, left paw, individual animals) was 1.67 mL and 1.68 mL (2×) and 1.64 mL and 1.59 mL and 2.01 mL and 1.63 mL (2×) and the “Average animal paw volume percent change” value (3 mg/kg, Day 14, right hind paw (R)) was 19.52%. The “Animal paw volume Day 14 R” value (3 mg/kg, Day 14, right paw, individual animals) was 1.57 mL and 1.52 mL and 1.41 mL and 1.87 mL and 1.50 mL and 2.04 mL and 1.43 mL (2×), the “Average animal paw volume percent change” value (3 mg/kg, Day 15, left hind paw (L)) was 39.96% and the “Animal paw volume Day 15 L” value (3 mg/kg, Day 15, left paw, individual animals) was 1.72 mL and 1.70 mL and 1.91 mL and 1.65 mL and 2.44 mL and 2.06 mL and 1.74 mL and 1.68 mL. For the same molecule, the “Average animal paw volume percent change” value (3 mg/kg, Day 15, right hind paw (R)) was 43.85%, the “Animal paw volume Day 15 R” value (3 mg/kg, Day 15, right paw, individual animals) was 1.66 mL and 1.62 mL and 2.31 mL and 1.71 mL and 2.41 mL and 2.02 mL and 1.99 mL and 1.64 mL and the “Average animal paw volume percent change” value (3 mg/kg, Day 18, left hind paw (L)) was 87.19%. The “Animal paw volume Day 18 L” value (3 mg/kg, Day 18, left paw, individual animals) was 2.40 mL and 2.65 mL and 2.62 mL and 2.44 mL (2×) and 2.70 mL and 2.47 mL and 2.22 mL, the “Average animal paw volume percent change” value (3 mg/kg, Day 18, right hind paw (R)) was 89.41% and the “Animal paw volume Day 18 R” value (3 mg/kg, Day 18, right paw, individual animals) was 2.21 mL and 2.56 mL and 2.65 mL and 2.37 mL and 2.70 mL and 2.55 mL and 2.50 mL and 2.71 mL. For the same molecule, the “Average animal paw volume percent change” value (3 mg/kg, Day 19, left hind paw (L)) was 98.39%, the “Animal paw volume Day 19 L” value (3 mg/kg, Day 19, left paw, individual animals) was 2.51 mL and 2.85 mL and 2.75 mL and 2.50 mL and 2.71 mL and 2.60 mL and 2.43 mL and 2.79 mL and the “Average animal paw volume percent change” value (3 mg/kg, Day 19, right hind paw (R)) was 94.99%. For the same molecule, the “Animal paw volume Day 19 R” value (3 mg/kg, Day 19, right paw, individual animals) was 2.21 mL and 2.91 mL and 2.63 mL and 2.37 mL and 2.68 mL and 2.80 mL and 2.49 mL and 2.76 mL, the “Average animal paw volume percent change” value (3 mg/kg, Day 21, left hind paw (L)) was 100.54% and the “Animal paw volume Day 21 L” value (3 mg/kg, Day 21, left paw, individual animals) was 2.49 mL and 3.01 mL and 2.76 mL and 2.51 mL and 2.68 mL and 2.64 mL and 2.41 mL and 2.87 mL. The “Average animal paw volume percent change” value (3 mg/kg, Day 21, right hind paw (R)) was 94.48%, the “Animal paw volume Day 21 R” value (3 mg/kg, Day 21, right paw, individual animals) was 2.23 mL and 2.91 mL and 2.61 mL and 2.34 mL and 2.69 mL and 2.77 mL (2×) and 2.47 mL and the “average overall clinical score at plateau” value [5] was 7. The “day on which paw volume increased” value [5] was about 14 days, the “effect on hind paw volume” value [5] was “Paw volume increases were delayed; also recorded: more effective at controlling paw volume” and the “paw volume relative to CIA + vehicle (group 2)” value [5] was “significantly decreased relative to group 2 on days 19 and 21 (both paws, p<0.05)”. For the same molecule, the “animals exhibiting signs of disease” value [6] was 3/8, the “animals with a score of 2 in one hind limb” value [6] was “one animal” and the animals exhibiting disease (10 mg/kg twice daily P.O. (group 6), day 13) was 4/8. The “animals with a score of 3 in one or more hind limbs” value [7] was 3/8, the “animals with a score of 4 in a hind limb” value [7] was 1/8 and the animals exhibiting disease (10 mg/kg twice daily P.O. (group 6), day 15) was 7/8. For the same molecule, the “animals with scores of 4 in one or more hind limbs” value (10 mg/kg twice daily P.O. (group 6), day 18) was 4/8 and the animals exhibiting disease (10 mg/kg twice daily P.O. (group 6), day 19) was “all animals”.

— patent US20250263370A1 (Tay Therapeutics Limited, priority 2022, published 2025)
